{"source": "paper PMC7592813", "about": "(Oncology Research, 2014)", "molecular_target": "T1, recombinant ENOX2 (tNOX) (Homo sapiens, UniProt Q16206)", "T1 sequence (Q16206 1-610)": "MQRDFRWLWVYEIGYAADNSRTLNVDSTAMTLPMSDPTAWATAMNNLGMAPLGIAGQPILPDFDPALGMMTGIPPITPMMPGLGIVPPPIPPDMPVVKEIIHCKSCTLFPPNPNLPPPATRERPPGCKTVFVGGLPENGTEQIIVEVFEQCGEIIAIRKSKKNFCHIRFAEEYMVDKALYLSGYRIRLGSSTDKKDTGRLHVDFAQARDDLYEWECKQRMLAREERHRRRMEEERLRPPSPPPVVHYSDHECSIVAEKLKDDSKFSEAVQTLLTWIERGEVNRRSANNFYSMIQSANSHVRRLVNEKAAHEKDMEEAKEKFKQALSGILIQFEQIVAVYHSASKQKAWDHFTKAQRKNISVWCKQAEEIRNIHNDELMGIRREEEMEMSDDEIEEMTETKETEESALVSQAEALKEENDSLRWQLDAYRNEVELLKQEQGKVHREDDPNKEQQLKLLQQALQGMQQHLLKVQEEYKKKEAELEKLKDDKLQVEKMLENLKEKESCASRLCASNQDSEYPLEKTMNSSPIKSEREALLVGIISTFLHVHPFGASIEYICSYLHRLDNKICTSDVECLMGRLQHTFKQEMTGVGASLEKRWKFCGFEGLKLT", "assay": "NADH oxidation, A340", "type": "biochemical", "note": "Read-outs that look alike come from different tables or passages of the source."}
{"molecule": "2H-1-benzopyran-7-0,1,3-(4-hydroxyphenyl) [ME-143]", "values": [{"measurement": "EC50", "setting": "150 µM NADH, 25 mM Tris-MES pH 7.2, 100 µM GSH, 1 mM KCN, 37 °C, inhibition", "value": "~50", "unit": "nM"}]}
{"molecule": "Oc1ccc(C2=Cc3ccc(O)cc3OC2)cc1", "note": "[phenoxodiol]", "values": [{"measurement": "EC50", "value": "330 ± 153", "unit": "nM"}]}
